Assay results as given in patent publication US20050288259A1, “Composition” (priority 2002, published 2005).

Tests used:
[1] = test system: L. cuprina diflubenzuron-resistant strain (Emmaville); experiment: In vitro first stage larvae exposure, prevention of adult fly emergence, diflubenzuron-resistant strain; design: species or system Lucilia cuprina
Source text: Dicyclanil and diflubenzuron belong to different chemical families but are loosely grouped into a large class commonly known as “insect growth regulators”. Importantly both compounds interfere differently with the various development stages of insects. […] The invention makes use of the fact that dicyclanil will control the strains of blowfly that diflubenzuron is ineffective against.
Fly larvae belonging to a diflubenzuron-susceptible strain (LS) and a diflubenzuron-resistant strain (Emmaville) of L. cuprina are tested. First stage larvae are exposed to differing concentrations (aimed to achieve 0-100% prevention of adult fly emergence) of dicyclanil, diflubenzuron or a combination of the two actives (at the ratio used in the invention). The number of larvae forming pupae and the number of pupae producing viable adult flies are recorded. The level of diflubenzuron resistance in the Emmaville strain prevents achieving complete inhibition of adult fly emergence with diflubenzuron. Maximum mortality is 41% at 300 mg diflubenzuron/kg. The limit of solubility of diflubenzuron precludes the testing of higher concentrations.

[2] = Tissue residue study in sheep; assay type: in vivo; details: 2, 3, 4, 5, 6 or 17 weeks after treatment with the invention; none above Limit of Quantitation
Method: Tissue residue studies are carried out to determine the period after treatment where the produce of treated animals cannot be used for human consumption. The proposed maximum dose rate for the invention is used in this evaluation. Sheep are treated with the invention at the commencement of the study and at pre-defined intervals thereafter, groups of sheep are humanely sacrificed and the appropriate target tissues (liver, kidney, muscle, fat) are recovered and subsequently analyzed (under Good Laboratory Practice conditions) for the presence of active ingredients (and their metabolites if necessary).
The residue definition for dicyclanil in Australia is the sum of dicyclanil and its metabolite CGA 297′107. Considering this, in the course of this study the mean maximum residue concentrations were detected at two and three weeks post-treatment.
The residue definition for diflubenzuron in Australia is expressed as only diflubenzuron. In this study there were no detectable residues in individual tissues (liver, kidney, subcutaneous fat, renal fat) from any animal above the Limit of Quantitation (0.025 mg/kg) at 2, 3, 4, 5, 6 or 17 weeks after treatment.

Row | Structure (SMILES) | Emmaville strain response to dicyclanil ([1]; Emmaville strain compared with LS) | Maximum mortality ([1]; Emmaville strain, 300 mg diflubenzuron/kg) [%] | diflubenzuron residues in individual tissues (liver, kidney, subcutaneous fat, renal fat) [2] [mg/kg]
1 | N#Cc1c(N)nc(NC2CC2)nc1N [dicyclanil, 4,6-diamino-2-cyclopropylaminopyrimidine-5-carbonitrile] | typical of a susceptible strain |  | 
2 | O=C(NC(=O)c1c(F)cccc1F)Nc1ccc(Cl)cc1 [diflubenzuron, 1-(4-chlorophenyl)-3-(2,6-difluorobenzoyl)urea] |  | 41 | < 0.025
